Assay results: patent publication US12320800B2, “High-throughput automation of organoids for identifying therapeutic strategies” (UNIVERSITY OF WASHINGTON, priority 2018, dated 2025)
Converted amounts (≈) assume the structure as drawn.

Columns and labels:
cell stiffness = conditions: cited from earlier work
myosin = conditions: cited from earlier work; for effect: Table 5 listing
[1] = tested on: PKD1−/− and PKD2−/− mutant organoids; assay: Prophylactic effect of myosin activators on cyst formation in PKD organoids in suspension; format: cell-based, human
Description: Cyst formation. In adherent cultures (untreated), ‘cysts’ were identified as large, balloon-like, translucent structures that swayed in response to agitation. Flat rings and dilated tubules were not counted as cysts and occasionally appeared even in non-PKD controls. […] Wells were imaged using a Nikon TiE inverted wide-field microscope and cysts were quantified using ImageJ cell counter. To generate large cysts in suspension, adherent organoids were microdissected with a 23-gauge syringe needle from 24-well plates on an inverted phase-contrast microscope, and carefully transferred using a transfer pipette into a low-adhesion 6-well plate (Corning) containing 2 ml RB. The organoids were isolated on the twenty-first day of differentiation, before cysts formed. RB media was changed by gravity every three days, and cystogenesis was assessed at two weeks after replating.
EMD was efficient at rescuing cyst formation at the lowest dose tested (3 μM) and worked in both PKD1^−/− and PKD2^−/− mutant organoids.

[2] = tested on: control organoids of identical genetic background that lacked PKD mutations; assay: Blebbistatin cystogenesis in suspension culture, control organoids; format: cell-based, human; conditions: 3 days after treatment
Experimental: Cyst generation. […] Forskolin (Sigma) was added to microwell plates during automated liquid handling on the 21st day after differentiation. Large swellings rapidly developed and grew to full size over 72 hours. Cysts were identified by comparing images with captured with high-content imaging prior to forskolin treatment, and after 72 hours. Screening of PKD cystogenesis was performed in duplicate in 96-well plates to provide sufficient space and numbers of organoids per well. Factors were plated at four different concentrations for seven days, and the organoids were scanned visually on a phase-contrast microscope for increased or decreased cyst formation. […] Cyst diameters were measured using NIS Elements imaging software (Nikon). […]

[3] = tested on: PKD organoids (mutations in polycystin-1); assay: Small-scale screen of PKD cystogenesis modifiers in 96-well organoid plates; format: cell-based, human; parameters: dose or concentration left out as unconfirmed; conditions: 7 days, blebbistatin at highest concentration
Experimental: Cyst generation. PKD1^−/− and PKD2^−/− hPSCs or isogenic controls were differentiated in microwell plates in adherent cultures. Forskolin (Sigma) was added to microwell plates during automated liquid handling on the 21st day after differentiation. Large swellings rapidly developed and grew to full size over 72 hours. Cysts were identified by comparing images with captured with high-content imaging prior to forskolin treatment, and after 72 hours. Screening of PKD cystogenesis was performed in duplicate in 96-well plates to provide sufficient space and numbers of organoids per well. Factors were plated at four different concentrations for seven days, and the organoids were scanned visually on a phase-contrast microscope for increased or decreased cyst formation. […] Cyst diameters were measured using NIS Elements imaging software (Nikon). […]

PKD organoids [4] = assay: Blebbistatin cystogenesis in suspension culture, PKD organoids; format: cell-based, human; parameters: time after which PKD organoids formed cysts: dose or concentration left out as unconfirmed
Experimental: Cyst generation. […] Forskolin (Sigma) was added to microwell plates during automated liquid handling on the 21st day after differentiation. Large swellings rapidly developed and grew to full size over 72 hours. Cysts were identified by comparing images with captured with high-content imaging prior to forskolin treatment, and after 72 hours. Screening of PKD cystogenesis was performed in duplicate in 96-well plates to provide sufficient space and numbers of organoids per well. Factors were plated at four different concentrations for seven days, and the organoids were scanned visually on a phase-contrast microscope for increased or decreased cyst formation. […] To test cystogenesis in suspension, adherent organoids were microdissected with a 23-gauge syringe needle from 24-well plates on an inverted phase-contrast microscope, and transferred into a low-adhesion 6-well plate (Corning) containing 2 mL RB or 2 mL RB with […] blebbistatin. Organoids were imaged daily on a Nikon Ti Inverted Widefield microscope for a period of 7 days. Cyst diameters were measured using NIS Elements imaging software (Nikon). Contiguous microscopic fields were collected using an automated stage and stitched together using NIS Elements software to generate large images of wells or plates.

β-cardiac myosin = β-cardiac myosin (Homo sapiens, UniProt P12883); conditions: read-out: AC50, actomyosin ATPase activity; cited from earlier work
PKD organoids [5] = assay: Live-dead viability analysis of PKD organoids after EMD treatment; format: cell-based, human; conditions: 10 μM for two weeks
Experimental: To assess potential toxicity in human organoids, morphology was examined by phase-contrast microscopy during the treatment time course and performed a live-dead analysis of organoids at the endpoint of treatment (10 μM EMD for two weeks).

skeletal muscle myosin = conditions: read-out: AC50, actomyosin ATPase activity; cited from earlier work
non-cardiac myosin II = conditions: cited from earlier work
PKD1RC/RC mouse = assay: EMD pilot trial in PKD1RC/RC mouse; format: in vivo; conditions: for survival, distress and adverse effects: 5 mg/kg
Experimental: Efficacy In Vivo: To reproduce EMD's effects in an animal model, small pilot trial was performed in the PKD1RC/RC mouse. Animals at five months of age, a time point where cysts have already formed, were injected intraperitoneally with EMD four times over 2.5 weeks (FIG. 24A). EMD was dissolved in 400 μL PBS solution at 5 mg/kg (˜25 μM in mouse blood).
These animals were sacrificed and analyzed their kidney tissue.

[6] = cited from earlier work
myosin motor domain = conditions: allosteric pocket of the myosin motor domain; cited from earlier work
[7] = canines, orally administered, optimized for dissolution; cited from earlier work
late-stage PKD organoids = assay: Regression of pre-existing cysts in late-stage PKD organoids; format: cell-based, human; conditions: one week
Description: Reduction of pre-existing cysts would be a major advantage over tolvaptan. In an acute setting, EMD could be used to reduce pain from swollen cysts, and in a chronic setting it could potentially reverse the course of disease.

liver cells = conditions: in vitro; cited from earlier work
[8] = 5 mg/kg intraperitoneally, four times over 2.5 weeks
[9] = expected value, WT control or EMD, Aim 1
[10] = high dose (5 mg/kg) applied repeatedly

Chain of β-cardiac myosin (P12883 whole entry): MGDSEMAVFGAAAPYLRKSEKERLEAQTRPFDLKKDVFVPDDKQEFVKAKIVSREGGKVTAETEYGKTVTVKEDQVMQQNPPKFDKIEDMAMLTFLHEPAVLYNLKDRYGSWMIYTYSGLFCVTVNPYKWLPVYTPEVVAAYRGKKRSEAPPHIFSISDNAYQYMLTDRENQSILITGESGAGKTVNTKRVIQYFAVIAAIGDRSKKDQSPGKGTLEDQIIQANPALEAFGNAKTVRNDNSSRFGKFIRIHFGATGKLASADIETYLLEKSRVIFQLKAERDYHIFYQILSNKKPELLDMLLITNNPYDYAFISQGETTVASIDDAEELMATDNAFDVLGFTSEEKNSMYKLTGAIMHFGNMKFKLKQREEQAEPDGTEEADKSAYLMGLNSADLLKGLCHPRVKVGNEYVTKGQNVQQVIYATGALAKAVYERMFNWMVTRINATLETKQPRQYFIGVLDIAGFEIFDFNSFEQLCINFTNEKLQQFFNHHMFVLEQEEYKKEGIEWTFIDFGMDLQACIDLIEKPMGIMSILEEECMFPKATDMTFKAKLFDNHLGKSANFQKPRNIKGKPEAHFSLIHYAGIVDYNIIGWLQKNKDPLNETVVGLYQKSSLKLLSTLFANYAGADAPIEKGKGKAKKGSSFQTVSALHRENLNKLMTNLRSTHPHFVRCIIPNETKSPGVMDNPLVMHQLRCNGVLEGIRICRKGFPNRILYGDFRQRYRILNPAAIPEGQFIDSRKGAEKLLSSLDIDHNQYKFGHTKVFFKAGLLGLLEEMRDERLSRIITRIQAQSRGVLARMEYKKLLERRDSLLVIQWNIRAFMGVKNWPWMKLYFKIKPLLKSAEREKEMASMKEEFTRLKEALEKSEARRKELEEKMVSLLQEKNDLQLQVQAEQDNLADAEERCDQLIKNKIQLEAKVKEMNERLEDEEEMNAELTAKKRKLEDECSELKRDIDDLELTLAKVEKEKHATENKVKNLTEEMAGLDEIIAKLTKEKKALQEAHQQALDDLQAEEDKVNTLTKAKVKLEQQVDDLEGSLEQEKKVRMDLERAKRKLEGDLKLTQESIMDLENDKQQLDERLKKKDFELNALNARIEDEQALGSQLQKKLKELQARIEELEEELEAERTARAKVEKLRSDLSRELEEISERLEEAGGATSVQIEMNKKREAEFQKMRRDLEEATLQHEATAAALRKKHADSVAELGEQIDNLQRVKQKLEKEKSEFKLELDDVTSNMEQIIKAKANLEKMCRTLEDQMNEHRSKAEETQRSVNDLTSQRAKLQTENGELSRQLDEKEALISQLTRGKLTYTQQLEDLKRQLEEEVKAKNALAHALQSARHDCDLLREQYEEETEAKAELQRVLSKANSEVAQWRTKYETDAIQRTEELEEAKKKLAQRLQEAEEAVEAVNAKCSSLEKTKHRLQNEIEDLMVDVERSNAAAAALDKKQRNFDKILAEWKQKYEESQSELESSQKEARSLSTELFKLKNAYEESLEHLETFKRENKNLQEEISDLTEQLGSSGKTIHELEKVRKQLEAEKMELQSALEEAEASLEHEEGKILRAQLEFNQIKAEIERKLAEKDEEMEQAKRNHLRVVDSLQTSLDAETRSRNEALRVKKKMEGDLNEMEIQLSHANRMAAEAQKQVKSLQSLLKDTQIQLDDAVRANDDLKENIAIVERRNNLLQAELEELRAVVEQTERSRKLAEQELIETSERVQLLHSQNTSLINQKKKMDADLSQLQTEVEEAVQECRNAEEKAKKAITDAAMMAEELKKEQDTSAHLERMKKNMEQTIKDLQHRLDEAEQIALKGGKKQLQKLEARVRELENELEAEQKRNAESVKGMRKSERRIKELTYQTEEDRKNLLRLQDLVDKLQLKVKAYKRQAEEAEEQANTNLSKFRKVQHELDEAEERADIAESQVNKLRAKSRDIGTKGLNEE
Chain of β-cardiac myosin (P08590 whole entry partner): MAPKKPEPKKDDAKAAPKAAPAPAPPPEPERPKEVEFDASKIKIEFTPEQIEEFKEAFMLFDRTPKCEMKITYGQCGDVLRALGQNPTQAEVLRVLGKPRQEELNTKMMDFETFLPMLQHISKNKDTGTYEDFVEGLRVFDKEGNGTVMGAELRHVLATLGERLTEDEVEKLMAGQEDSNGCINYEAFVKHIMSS

SMILES: CC(=O)c1ccc(O)cc1 [4-HAP, 4-hydroxyacetophenone]
- concentration range showing effects on cell stiffness (cell stiffness): 5 to 50 µM
- effect (myosin): ↑ myosin IIB, IIC
- myosin II paralogs affected (myosin): specifically affect non-muscle myosins IIB and IIC, but not IIA
- effect on PKD organoid cysts [1]: less activity than EMD
- effect on cyst growth in PKD1−/− organoids ([1]; 300 μM (FIG. 22)): Positive effects

SMILES: Cc1ccc2c(c1)C(=O)C1(O)CCN(c3ccccc3)C1=N2 (centres unmarked) [blebbistatin]
- increase in rate of cystogenesis [2]: 10%
- change in cyst formation [3]: significant increase in cyst formation
- diameter and number of cysts (PKD organoids [4]; 7 days of treatment, suspension): Both the diameter and number of cysts were increased
- increase in rate of cystogenesis (PKD organoids [4]; PKD organoids, suspension, 3 days after treatment): 40%
- damage to organoids (PKD organoids [4]; at this concentration and time frame): no damage to organoids was observed
- time after which PKD organoids formed cysts (PKD organoids [4]; suspension culture, blebbistatin): 24 h
- cyst size after removal of blebbistatin (PKD organoids [4]; washout after 7 days of treatment): cyst size declined

SMILES: COc1ccc(C(=O)N2CCCc3cc(C4=NNC(=O)SC4C)ccc32)cc1OC (single isomer, unassigned; (+)) [EMD, (+)-5-(1-(3,4-Dimethoxybenzoyl)-1,2,3,4-tetrahydroquinolin-6-yl)-6-methyl-3,6-dihydro-2H-1,3,4-thiadiazin-2-one]
- AC50 (β-cardiac myosin): 7 µM
- toxicity (phase-contrast morphology and live-dead analysis) (PKD organoids [5]): no significant toxicity
- AC50 (skeletal muscle myosin): 15.1 µM
- increase of non-cardiac myosin II activity (non-cardiac myosin II): three-fold
- blood urea nitrogen levels (BUN) (PKD1RC/RC mouse; [8]): reduced
- kidney weight (PKD1RC/RC mouse; [8]): reduced
- superficial (renal cortical) cysts by gross morphology (PKD1RC/RC mouse; 5 mg/kg intraperitoneally, four times over 2.5 weeks, five months of age): noticeably reduced superficial (renal cortical) cysts
- BUN (PKD1RC/RC mouse; [9]): 20 ± 5 mg/dL
- kidney weight (PKD1RC/RC mouse; [9]): 0.30 ± 0.1 g
- alpha-SMA+ area (%) (PKD1RC/RC mouse; expected value, WT control or EMD, Aim 2): 25 ± 4%
- fibrosis in the kidneys (PKD1RC/RC mouse; [10]): No fibrosis was observed
- survival, distress and adverse effects (PKD1RC/RC mouse; [10]): no adverse effects or mortality
- survival, distress and adverse effects (PKD1RC/RC mouse; mouse, in vivo): all animals survived, and none showed any signs of distress
- acute tubular necrosis, proximal tubules (LTL+) (PKD1RC/RC mouse; treated kidneys): no evidence of acute tubular necrosis
- cyst size in kidney sections (PKD1RC/RC mouse; treated kidneys): smaller cysts
- expression of smooth muscle alpha-actin (PKD1RC/RC mouse; treated kidneys): reduced expression
- aqueous solubility [6]: 5 µg/mL (≈ 11.8 µM)
- Kd (myosin motor domain): 7.3 µM
- effect (myosin): ↑ myosin
- lowest dose tested, efficient at rescuing cyst formation ([1]; PKD1−/− and PKD2−/− mutant organoids): 3 µM
- Cyst diameter (mm) [1, 9]: 0.12 ± 0.04 mm
- Cystic organoids (%) [1, 9]: 15 ± 6%
- formation and size of resultant cysts ([1]; pre-cystic organoids in suspension, versus untreated controls): effectively reduced the formation and size of the resultant cysts
- efficacy on cysts in the presence of blebbistatin ([1]; with blebbistatin): effective even in the presence of blebbistatin
- Tmax [7]: ~2.5 h
- average Cmax [7]: ~40 ng/mL
- size of pre-formed cysts (late-stage PKD organoids; late-stage PKD organoids (day 37), 5 μM): acute reduction in the size of pre-formed cysts
- toxicity at these doses (late-stage PKD organoids; late-stage PKD organoids): No overt toxicity
- metabolism by liver cells (liver cells): metabolized by liver cells into demethylated and/or hydroxylated forms by CYP-dependent mechanisms
